# Earlier results, collected in PubChem BioAssay AID1259409 (Chemical Carcinogenesis Research Information System (CCRIS), 2018).
# *1 amine or outer side, *2 acyl side, *3 side chain or, on linkers, in order; H or OH if unused. Where a SMILES comes first, the peptide text is derived from it. [ ]: non-standard residue; d: D form. X1 = O=C(C(N[*:1])c1ccc(OS(=O)(=O)O)cc1)[*:2]
# Test system: rodent chemically induced tumor inhibition, incidence and multiplicity
# Assay: CCRIS tumor inhibitor studies
# Conditions: Carcinogen: N-NITROSOBIS(2-OXOPROPYL)AMINE, 60599-38-4, Route [Inhibitor]: SUBCUTANEOUS, Species: HAMSTER, Strain/Sex: SYRIAN/MALE, FEMALE, Promoter: NONE USED
structure (smiles),measurement,setting,value
CCC(C)C(NC(=O)C(CCCNC(=N)N)NC(=O)C(Cc1c[nH]cn1)NC(=O)C(CO)NC(=O)C1CCCN1C(=O)C(CC(=O)O)NC(=O)C(CC(C)C)NC(=O)C(CC(N)=O)NC(=O)C(CCC(N)=O)NC(=O)C(CC(C)C)NC(=O)C(CC(N)=O)NC(=O)C(CCCCN)NC(=O)C(NC(=O)C(NC(=O)C(CO)NC(=O)C(CCSC)NC(=O)C(CCCNC(=N)N)NC(=O)CNC(=O)C(CO)NC(=O)C1CCCN1C(=O)C(C)NC(=O)C(N)CCCCN)C(C)CC)C(C)C)C(=O)NC(CO)C(=O)NC(CC(=O)O)C(=O)NC(CCCNC(=N)N)C(=O)NC(CC(=O)O)C(=O)NC(C(=O)NC(CCSC)C(=O)NCC(=O)NC(Cc1c[nH]c2ccccc12)C(=O)NC(CCSC)C(=O)NC(CC(=O)O)C(=O)NC(Cc1ccccc1)C(N)=O)c1ccc(OS(=O)(=O)O)cc1 (stereo not given) (H-KAPSGRMSIVKNLQNLDPSHRISDRD[X1]MGWMDF-NH2; configuration not given here),"tumour outcome (control, treated, inhibition, significance)","Dose [Inhibitor]: 20 IDU/KG BW 6/D FOR 15 WK FIRST DOSE GIVEN 3 HR POST CARCINOGEN DOSE (STUDY DURATION: 46 WK), Target Tissue: Type of Lesion: PANCREAS: DUCTAL/DUCTULAR CARCINOMA, Dose [Carcinogen]: 20 MG/KG BW IN PHYSIOLOGICAL SALINE ONCE","21/40 (52%), 10/37 (27%), 48%, p<0.05"
same,"tumour outcome (control, treated, inhibition, significance)","Dose [Inhibitor]: 20 IDU/KG BW 6/D FOR 15 WK FIRST DOSE GIVEN 3 HR POST CARCINOGEN DOSE (STUDY DURATION: 46 WK), Target Tissue: Type of Lesion: PANCREAS: DUCTULAR ADENOMA, Dose [Carcinogen]: 20 MG/KG BW IN PHYSIOLOGICAL SALINE ONCE","31/40 (78%), 22/37 (59%), 24%, not calculated"
same,"tumour outcome (control, treated, inhibition, significance)","Dose [Inhibitor]: 20 IDU/KG BW 6/D FOR 15 WK FIRST DOSE GIVEN 3 HR POST CARCINOGEN DOSE (STUDY DURATION: 46 WK), Target Tissue: Type of Lesion: PANCREAS: DUCTULAR PROLIFERATION, Dose [Carcinogen]: 20 MG/KG BW IN PHYSIOLOGICAL SALINE ONCE","37/40 (92%), 35/37 (95%), -3%, not calculated"
same,"tumour outcome (control, treated, inhibition, significance)","Dose [Inhibitor]: 20 IDU/KG BW INJECTED AT 30 MIN INTERVALS FOR 6 DOSES, FIRST DOSE GIVEN 3 HR POST CARCINOGEN DOSE (STUDY DURATION: 46 WK, Target Tissue: Type of Lesion: PANCREAS: DUCTAL/DUCTULAR CARCINOMA, Dose [Carcinogen]: 20 MG/KG BW IN PHYSIOLOGICAL SALINE ONCE","21/40 (52%), 17/39 (44%), 15%, not calculated"
same,"tumour outcome (control, treated, inhibition, significance)","Dose [Inhibitor]: 20 IDU/KG BW INJECTED AT 30 MIN INTERVALS FOR 6 DOSES, FIRST DOSE GIVEN 3 HR POST CARCINOGEN DOSE (STUDY DURATION: 46 WK, Target Tissue: Type of Lesion: PANCREAS: DUCTULAR PROLIFERATION, Dose [Carcinogen]: 20 MG/KG BW IN PHYSIOLOGICAL SALINE ONCE","37/40 (92%), 37/39 (95%), -3%, not calculated"
same,"tumour outcome (control, treated, inhibition, significance)","Dose [Inhibitor]: 20 IDU/KG BW INJECTED AT 30 MIN INTERVALS FOR 6 DOSES, FIRST DOSE GIVEN 3 HR POST EACH CARCINOGEN DOSE (STUDY DURATION:, Target Tissue: Type of Lesion: PANCREAS: DUCTAL ADENOMA, Dose [Carcinogen]: 2.5 MG/KG BW IN PHYSIOLOGICAL SALINE 1/WK FOR 20 WK","17/25 (68%), 20/25 (80%), -18%, not calculated"
same,"tumour outcome (control, treated, inhibition, significance)","Dose [Inhibitor]: 20 IDU/KG BW INJECTED AT 30 MIN INTERVALS FOR 6 DOSES, FIRST DOSE GIVEN 3 HR POST EACH CARCINOGEN DOSE (STUDY DURATION:, Target Tissue: Type of Lesion: PANCREAS: DUCTAL PROLIFERATION, Dose [Carcinogen]: 2.5 MG/KG BW IN PHYSIOLOGICAL SALINE 1/WK FOR 20 WK","22/25 (88%), 23/25 (92%), -5%, not calculated"
same,"tumour outcome (control, treated, inhibition, significance)","Dose [Inhibitor]: 20 IDU/KG BW INJECTED AT 30 MIN INTERVALS FOR 6 DOSES, FIRST DOSE GIVEN 3 HR POST EACH CARCINOGEN DOSE (STUDY DURATION:, Target Tissue: Type of Lesion: PANCREAS: DUCTAL/DUCTULAR CARCINOMA, Dose [Carcinogen]: 2.5 MG/KG BW IN PHYSIOLOGICAL SALINE 1/WK FOR 20 WK","15/25 (60%), 23/25 (92%), -53%, not calculated"
same,"tumour outcome (control, treated, inhibition, significance)","Dose [Inhibitor]: 20 IDU/KG BW INJECTED AT 30 MIN INTERVALS FOR 6 DOSES, FIRST DOSE GIVEN SIMULTANEOUSLY WITH CARCINOGEN DOSE (STUDY DURAT, Target Tissue: Type of Lesion: PANCREAS: DUCTAL/DUCTULAR CARCINOMA, Dose [Carcinogen]: 20 MG/KG BW IN PHYSIOLOGICAL SALINE ONCE","21/40 (52%), 5/39 (13%), 75%, p<0.001"
same,"tumour outcome (control, treated, inhibition, significance)","Dose [Inhibitor]: 20 IDU/KG BW INJECTED AT 30 MIN INTERVALS FOR 6 DOSES, FIRST DOSE GIVEN SIMULTANEOUSLY WITH CARCINOGEN DOSE (STUDY DURAT, Target Tissue: Type of Lesion: PANCREAS: DUCTULAR ADENOMA, Dose [Carcinogen]: 20 MG/KG BW IN PHYSIOLOGICAL SALINE ONCE","31/40 (78%), 23/39 (59%), 24%, not calculated"
same,"tumour outcome (control, treated, inhibition, significance)","Dose [Inhibitor]: 20 IDU/KG BW INJECTED AT 30 MIN INTERVALS FOR 6 DOSES, FIRST DOSE GIVEN SIMULTANEOUSLY WITH CARCINOGEN DOSE (STUDY DURAT, Target Tissue: Type of Lesion: PANCREAS: DUCTULAR PROLIFERATION, Dose [Carcinogen]: 20 MG/KG BW IN PHYSIOLOGICAL SALINE ONCE","37/40 (92%), 35/39 (90%), 2%, not calculated"
same,"tumour outcome (control, treated, inhibition, significance)","Dose [Inhibitor]: 20 IDU/KG BW INJECTED AT 30 MIN INTERVALS FOR 6 DOSES, FIRST DOSE GIVEN SIMULTANEOUSLY WITH EACH CARCINOGEN DOSE (STUDY, Target Tissue: Type of Lesion: PANCREAS: DUCTAL ADENOMA, Dose [Carcinogen]: 2.5 MG/KG BW IN PHYSIOLOGICAL SALINE 1/WK FOR 20 WK","17/25 (68%), 21/24 (88%), -29%, not calculated"
same,"tumour outcome (control, treated, inhibition, significance)","Dose [Inhibitor]: 20 IDU/KG BW INJECTED AT 30 MIN INTERVALS FOR 6 DOSES, FIRST DOSE GIVEN SIMULTANEOUSLY WITH EACH CARCINOGEN DOSE (STUDY, Target Tissue: Type of Lesion: PANCREAS: DUCTAL PROLIFERATION, Dose [Carcinogen]: 2.5 MG/KG BW IN PHYSIOLOGICAL SALINE 1/WK FOR 20 WK","22/25 (88%), 22/24 (92%), -5%, not calculated"
same,"tumour outcome (control, treated, inhibition, significance)","Dose [Inhibitor]: 20 IDU/KG BW INJECTED AT 30 MIN INTERVALS FOR 6 DOSES, FIRST DOSE GIVEN SIMULTANEOUSLY WITH EACH CARCINOGEN DOSE (STUDY, Target Tissue: Type of Lesion: PANCREAS: DUCTAL/DUCTULAR CARCINOMA, Dose [Carcinogen]: 2.5 MG/KG BW IN PHYSIOLOGICAL SALINE 1/WK FOR 20 WK","15/25 (60%), 18/24 (75%), -25%, not calculated"
same,"tumour outcome (control, treated, inhibition, significance)","Dose [Inhibitor]: 20 IDU/KG BW INJECTED AT 30 MIN INTERVALS FOR 6 DOSES, LAST DOSE 3 HR PRIOR TO CARCINOGEN DOSE (STUDY DURATION: 46 WK), Target Tissue: Type of Lesion: PANCREAS: DUCTAL/DUCTULAR CARCINOMA, Dose [Carcinogen]: 20 MG/KG BW IN PHYSIOLOGICAL SALINE ONCE","21/40 (52%), 8/37 (22%), 58%, p<0.025"
same,"tumour outcome (control, treated, inhibition, significance)","Dose [Inhibitor]: 20 IDU/KG BW INJECTED AT 30 MIN INTERVALS FOR 6 DOSES, LAST DOSE 3 HR PRIOR TO CARCINOGEN DOSE (STUDY DURATION: 46 WK), Target Tissue: Type of Lesion: PANCREAS: DUCTULAR ADENOMA, Dose [Carcinogen]: 20 MG/KG BW IN PHYSIOLOGICAL SALINE ONCE","31/40 (78%), 19/37 (51%), 35%, not calculated"
same,"tumour outcome (control, treated, inhibition, significance)","Dose [Inhibitor]: 20 IDU/KG BW INJECTED AT 30 MIN INTERVALS FOR 6 DOSES, LAST DOSE 3 HR PRIOR TO CARCINOGEN DOSE (STUDY DURATION: 46 WK), Target Tissue: Type of Lesion: PANCREAS: DUCTULAR PROLIFERATION, Dose [Carcinogen]: 20 MG/KG BW IN PHYSIOLOGICAL SALINE ONCE","37/40 (92%), 33/37 (89%), 3%, not calculated"
same,"tumour outcome (control, treated, inhibition, significance)","Dose [Inhibitor]: 20 IDU/KG BW INJECTED AT 30 MIN INTERVALS FOR 6 DOSES, LAST DOSE GIVEN 3 HR PRIOR TO EACH CARCINOGEN DOSE (STUDY DURATIO, Target Tissue: Type of Lesion: PANCREAS: DUCTAL ADENOMA, Dose [Carcinogen]: 2.5 MG/KG BW IN PHYSIOLOGICAL SALINE 1/WK FOR 20 WK","17/25 (68%), 25/29 (89%), -31%, not calculated"
same,"tumour outcome (control, treated, inhibition, significance)","Dose [Inhibitor]: 20 IDU/KG BW INJECTED AT 30 MIN INTERVALS FOR 6 DOSES, LAST DOSE GIVEN 3 HR PRIOR TO EACH CARCINOGEN DOSE (STUDY DURATIO, Target Tissue: Type of Lesion: PANCREAS: DUCTAL PROLIFERATION, Dose [Carcinogen]: 2.5 MG/KG BW IN PHYSIOLOGICAL SALINE 1/WK FOR 20 WK","22/25 (88%), 24/29 (86%), 2%, not calculated"
same,"tumour outcome (control, treated, inhibition, significance)","Dose [Inhibitor]: 20 IDU/KG BW INJECTED AT 30 MIN INTERVALS FOR 6 DOSES, LAST DOSE GIVEN 3 HR PRIOR TO EACH CARCINOGEN DOSE (STUDY DURATIO, Target Tissue: Type of Lesion: PANCREAS: DUCTAL/DUCTULAR CARCINOMA, Dose [Carcinogen]: 2.5 MG/KG BW IN PHYSIOLOGICAL SALINE 1/WK FOR 20 WK","15/25 (60%), 23/29 (82%), -37%, not calculated"
